Publication PMC7665192, “A natriuretic peptide from Arabidopsis thaliana (AtPNP-A) can modulate catalase 2 activity” (Scientific Reports, 2020)
Positions of bridges follow the written chain, without caps; N, C: chain ends. Residues, ends and D or L forms follow the SMILES beside them. *: point of attachment. Biotin = O=C1N[C@H]2[C@H](CS[C@H]2CCCCC(=O)*)N1

How the values were obtained:
rCAT2 = assay: Enzymatic activity of rCAT2, Amplex Red catalase assay; format: biochemical, Arabidopsis thaliana; settings: 100 nM, Amplex Red catalase assay kit; three independent experiments, P < 0.01
Description: Enzymatic activity of CAT isozymes and total CAT activities of protein extracted from WT and atpnp-a or cat2-2 mutant lines, when indicated sprayed with 1 nM pAtPNP-A or pScr 20 min before harvesting, were determined zymographically and spectrophotometrically, as described in[56]. Relative quantification of intensity of bands corresponding to different CAT isoforms was performed with ImageJ version 1.48 (https://imagej.nih.gov/ij/). Enzymatic activity of the rCAT2 in the presence of absence of 100 nM rAtPNP-A, pAtPNP-A or pScr were determined with the use of Amplex Red catalase assay kit (Invitrogen) according to the manufacturer’s instructions.
Figure 3 AtPNP-A directly interacts with CAT2 to modulate its enzymatic activity in vitro. (a) Zymogram depicting changes in the enzymatic activity of CAT isoforms extracted from wild type (WT) or cat2-2 knockout mutant seedlings in response to 1 nM pAtPNP-A or pScr. Densitometric semi-quantification of bands corresponding to CAT2, normalized to the loading control (dark-coloured band on zymogram) for WT samples treated with 1 nM pAtPNP-A or pScr (mean ± SD, Student’s t-test, n = 3, P < 0.05). […] (b) Total CAT activity in protein extracted from WT seedlings assayed with Amplex Red catalase assay kit in the presence of 1 nM pAtPNP-A, rAtPNP-A, or pScr. […] (c) Enzymatic activity of rCAT2 in the presence of 100 nM pAtPNP-A, rAtPNP-A, or pScr.

[1] = tested on: ADH5, alcohol dehydrogenase 2; assay: Yeast two-hybrid (Y2H) screen; format: binding, A. thaliana; settings: bait AtPNP-A amino acids 26–130, prey At5g43940.1
Description: (§1) The Y2H screen using AtPNP-A as bait was carried out by Dualsystems Biotech AG (Zurich, Switzerland). The bait construct for the screening was made by subcloning the cDNA fragment encoding exported portion of AtPNP-A (amino acids 26 to 130) (Fig. 1a) into the pLexA-DIR vector (Dualsystems Biotech AG). The bait construct was transformed into the strain NMY32 (MATa his3Δ200 trp1-901 leu2-3,112 (lexAop)8-ADE2 LYS2::(lexAop)4-HIS3 URA3::(lexAop)8-lacZ GAL4) using standard procedures. Correct expression of the bait was verified by western blotting of cell extracts using a mouse monoclonal antibody directed against the LexA domain (Dualsystems Biotech AG). The absence of self-activation was verified by co-transformation of the bait together with a control prey and selection on minimal medium lacking tryptophan, leucine, and histidine (selective medium). For the Y2H screen, the bait was co-transformed together with a normalized A. thaliana universal P02403 cDNA library (Dualsystems Biotech AG) into NMY32. 3.1 × 10^6 transformants were screened, yielding 96 transformants that grew on selective medium. […] Library plasmids were isolated from positive clones. The identity of positive interactants was determined by sequencing. DNA sequences translated in all three reading frames and searching against the SwissProt database using the BLASTX algorithm (https://blast.ncbi.nlm.nih.gov).

[2] = tested on: Basic-leucine zipper (bZIP) TF family protein; assay: Yeast two-hybrid (Y2H) screen; format: binding, A. thaliana; settings: bait AtPNP-A amino acids 26–130, prey At2g31370.1
Description: as §1

CAT2, catalase 2 = assay: Yeast two-hybrid (Y2H) screen; format: binding, A. thaliana; settings: bait AtPNP-A amino acids 26–130, prey At4g35090.1
Description: as §1

COL1, constans-like 1 = assay: Yeast two-hybrid (Y2H) screen; format: binding, A. thaliana; settings: bait AtPNP-A amino acids 26–130, prey At5g15850.1
Description: as §1

[3] = tested on: ER, enhanced of rudimentary homologue, ATER; assay: Yeast two-hybrid (Y2H) screen; format: binding, A. thaliana; settings: bait AtPNP-A amino acids 26–130, prey At5g10810.1
Description: as §1

[4] = tested on: HISN5B, histidine biosynthesis 5B; assay: Yeast two-hybrid (Y2H) screen; format: binding, A. thaliana; settings: bait AtPNP-A amino acids 26–130, prey At4g14910.1
Description: as §1

[5] = tested on: IGPD, imidazole glycerol-phosphate dehydratase; assay: Yeast two-hybrid (Y2H) screen; format: binding, A. thaliana; settings: bait AtPNP-A amino acids 26–130, prey At3g22425.1
Description: as §1

[6] = tested on: MAC5S, MOS4-associated complex subunit 5C; assay: Yeast two-hybrid (Y2H) screen; format: binding, A. thaliana; settings: bait AtPNP-A amino acids 26–130, prey At5g07060.1
Description: as §1

NUDX1, nudix hydrolase 1 = assay: Yeast two-hybrid (Y2H) screen; format: binding, A. thaliana; settings: bait AtPNP-A amino acids 26–130, prey At1g68760.1
Description: as §1

[7] = tested on: Protein containing PAM2 motif; assay: Yeast two-hybrid (Y2H) screen; format: binding, A. thaliana; settings: bait AtPNP-A amino acids 26–130, prey At4g14270.1
Description: as §1

[8] = tested on: RAP2.12, ethylene response factor; assay: Yeast two-hybrid (Y2H) screen; format: binding, A. thaliana; settings: bait AtPNP-A amino acids 26–130, prey At1g53910.1
Description: as §1

stomata = settings: cited from earlier work
From the text: A PNP_CAT interaction in plant responses to infecting pathogens is not surprising. CATs commonly function to down-regulate ROS during ABA-induced stomatal closure, and ABA-induced stomatal closure can be inhibited by removal of H2O2 via CAT2[73],[74]. […] Therefore, it is tempting to speculate that AtPNP-A modulates the effect of ABA on stomatal aperture through the interaction w ...

cGMP = settings: cited from earlier work
From the text: Similarly, identification of novel receptors targeted by an increasing number of peptidic plant hormones discovered in the last few decades[8],[9] is anticipated. One of those, the plant natriuretic peptides (PNPs), are a group of systemically mobile signals[10] that have a role in the maintenance of salt and water balance[11],[12]. An A. thaliana PNP, termed AtPNP-A (At2g18660; Q9ZV52), has been implicated in several physiological processes ranging from the regulation of stomatal aperture, osmoticum-dependent volume changes[13],[14] and modulation of developmental stage- and tissue-specif ... || A PNP_CAT interaction in plant responses to infecting pathogens is not surprising. CATs commonly function to down-regulate ROS during ABA-induced stomatal closure, and ABA-induced stomatal closure can be inhibited by removal of H2O2 via CAT2[73],[74]. […] Therefore, it is tempting to speculate that AtPNP-A modulates the effect of ABA on stomatal aperture through the interaction w ...

P. syringae = tested on: P. syringae; set-up: method as in PMID 32409317, PMID 28401640; settings: cited from earlier work

## CC(C)C[C@@H]1NC(=O)[C@H](CC(N)=O)NC(=O)[C@H](CC(N)=O)NC(=O)[C@H](CCCCN)NC(=O)[C@H](C(C)C)NC(=O)CNC(=O)[C@H](C(C)C)NC(=O)[C@H](C(C)C)NC(=O)[C@H](CC(C)C)NC(=O)[C@H]([C@@H](C)O)NC(=O)[C@H](CCC(=O)O)NC(=O)[C@H](CCCNC(=N)N)NC(=O)[C@H](CCC(N)=O)NC(=O)[C@H]([C@@H](C)O)NC(=O)CNC(=O)[C@H](Cc2ccc(O)cc2)NC(=O)[C@@H](NC(=O)[C@H](C)NC(=O)[C@H](CO)NC(=O)[C@H](CCCNC(=N)N)NC(=O)[C@@H](NC(=O)[C@H](Cc2ccc(O)cc2)NC(=O)[C@@H]2CCCN2)[C@@H](C)O)CSSC[C@@H](C(=O)NCC(=O)N[C@@H](CCCNC(=N)N)C(=O)N[C@@H](CCCNC(=N)N)C(=O)N[C@@H](Cc2ccc(O)cc2)C(=O)N[C@@H](CCCNC(=N)N)C(=O)N[C@H](C(=O)N[C@@H](CCCNC(=N)N)C(=O)N[C@@H](CCCCNC(=O)CCCC[C@@H]2SC[C@@H]3NC(=O)N[C@@H]32)C(=O)O)C(C)C)NC(=O)[C@H](C)NC(=O)[C@H](CCCNC(=N)N)NC(=O)CNC(=O)[C@H](CC(N)=O)NC(=O)[C@H](CCC(N)=O)NC(=O)[C@H](Cc2c[nH]c3ccccc23)NC1=O [pAtPNP-A] (H-PYTRSACYGTQRETLVVGVKNNLWQNGRACGRRYRVRK(Biotin)-OH; disulfide 7-30; N-terminus and C-terminus assumed)
rCAT2
  In vitro enzymatic activity of rCAT2: significantly enhanced

## AtPNP-A: An A. thaliana PNP, termed AtPNP-A (At2g18660; Q9ZV52)
[1]
  Strength of binding: Weak
[2]
  Strength of binding: Weak
CAT2, catalase 2
  Strength of binding: Weak
COL1, constans-like 1
  Strength of binding: Weak
[3]
  Strength of binding: Weak
[4]
  Strength of binding: Moderate
[5]
  Strength of binding: Strong
[6]
  Strength of binding: Strong
NUDX1, nudix hydrolase 1
  Strength of binding: Moderate
[7]
  Strength of binding: Moderate
[8]
  Strength of binding: Strong
stomata
  Effect on ABA-induced stomatal closure: significantly delay and reduce the extent of ABA-induced stomatal closure
cGMP
  Elevation of cGMP: rapid elevation of 3′,5′-cyclic guanosine monophosphate (cGMP)
P. syringae
  Role in response to P. syringae infection: protective role in the response to infection with P. syringae
